Test results: the supplement of paper PMC10307832

Columns and labels:
Test in all cases: relative viability (nuclei count vs DMSO), 5 days (fraction); higher = more cells survive
EKVX = system: EKVX
Procedure, shortened: (§1)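 Cells from lung cancer lines were seeded into 1536-well plates and, one day later, dosed by pin tool. Treatments were either a single drug or a fixed dose of an anchor drug with five library-drug doses (not always all listed) in √10 steps. After 5 days, nuclei were stained in a one-step fixation (final 0.05% Triton X-100, 1% formaldehyde, 1 ug/ml Hoechst) and counted on 4× images, and relative viability is the treated-to-vehicle nuclei ratio, as the median of duplicate plates.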

HCC-827 = system: HCC-827
Procedure, shortened: as §1

PC-3 [JPC-3] = system: PC-3 [JPC-3]
Procedure, shortened: as §1

NCI-H661 = system: NCI-H661
Procedure, shortened: as §1

NCI-H1650 = system: NCI-H1650
Procedure, shortened: as §1

NCI-H1975 = system: NCI-H1975
Procedure, shortened: as §1

PC-14 = system: PC-14
Procedure, shortened: as §1

LK-2 = system: LK-2
Procedure, shortened: as §1

RERF-LC-KJ = system: RERF-LC-KJ
Procedure, shortened: as §1

H3255 = system: H3255
Procedure, shortened: as §1

NCI-H1355 = system: NCI-H1355
Procedure, shortened: as §1

NCI-H2405 = system: NCI-H2405
Procedure, shortened: as §1

NCI-H2342 = system: NCI-H2342
Procedure, shortened: as §1

NCI-H2228 = system: NCI-H2228
Procedure, shortened: as §1

CAL-12T = system: CAL-12T
Procedure, shortened: as §1

NCI-H520 = system: NCI-H520
Procedure, shortened: as §1

HCC-15 = system: HCC-15
Procedure, shortened: as §1

NCI-H1734 = system: NCI-H1734
Procedure, shortened: as §1

NCI-H1755 = system: NCI-H1755
Procedure, shortened: as §1

NCI-H322M = system: NCI-H322M
Procedure, shortened: as §1

LCLC-97TM1 = system: LCLC-97TM1
Procedure, shortened: as §1

Compound: O=c1cc(N2CCOCC2)oc2c(-c3cccc4c3sc3ccccc34)cccc12 + Cc1cc(Nc2cc(N3CCN(C)CC3)nc(Sc3ccc(NC(=O)C4CC4)cc3)n2)n[nH]1 [Tozasertib] (partner 0.1 µM)
- relative viability (EKVX; first compound 0.01 µM): 0.448
- relative viability (EKVX; first compound 0.03162 µM): 0.332
- relative viability (EKVX; first compound 0.1 µM): 0.441
- relative viability (EKVX; first compound 0.3162 µM): 0.343
- relative viability (EKVX; first compound 1 µM): 0.36
- relative viability (HCC-827; first compound 0.01 µM): 0.386
- relative viability (HCC-827; first compound 0.03162 µM): 0.435
- relative viability (HCC-827; first compound 0.1 µM): 0.431
- relative viability (HCC-827; first compound 0.3162 µM): 0.426
- relative viability (HCC-827; first compound 1 µM): 0.389
- relative viability (PC-3 [JPC-3]; first compound 0.01 µM): 0.855
- relative viability (PC-3 [JPC-3]; first compound 0.03162 µM): 0.884
- relative viability (PC-3 [JPC-3]; first compound 0.1 µM): 0.879
- relative viability (PC-3 [JPC-3]; first compound 0.3162 µM): 0.842
- relative viability (PC-3 [JPC-3]; first compound 1 µM): 0.852
- relative viability (NCI-H661; first compound 0.01 µM): 0.367
- relative viability (NCI-H661; first compound 0.03162 µM): 0.356
- relative viability (NCI-H661; first compound 0.1 µM): 0.335
- relative viability (NCI-H661; first compound 0.3162 µM): 0.36
- relative viability (NCI-H661; first compound 1 µM): 0.362
- relative viability (NCI-H1650; first compound 0.01 µM): 0.383
- relative viability (NCI-H1650; first compound 0.03162 µM): 0.416
- relative viability (NCI-H1650; first compound 0.1 µM): 0.392
- relative viability (NCI-H1650; first compound 0.3162 µM): 0.373
- relative viability (NCI-H1650; first compound 1 µM): 0.352
- relative viability (NCI-H1975; first compound 0.01 µM): 0.692
- relative viability (NCI-H1975; first compound 0.03162 µM): 0.657
- relative viability (NCI-H1975; first compound 0.1 µM): 0.958
- relative viability (NCI-H1975; first compound 0.3162 µM): 0.746
- relative viability (NCI-H1975; first compound 1 µM): 0.76
- relative viability (PC-14; first compound 0.01 µM): 0.567
- relative viability (PC-14; first compound 0.03162 µM): 0.572
- relative viability (PC-14; first compound 0.1 µM): 0.575
- relative viability (PC-14; first compound 0.3162 µM): 0.535
- relative viability (PC-14; first compound 1 µM): 0.577
- relative viability (LK-2; first compound 0.01 µM): 0.164
- relative viability (LK-2; first compound 0.03162 µM): 0.161
- relative viability (LK-2; first compound 0.1 µM): 0.17
- relative viability (LK-2; first compound 0.3162 µM): 0.166
- relative viability (LK-2; first compound 1 µM): 0.17
- relative viability (RERF-LC-KJ; first compound 0.01 µM): 0.482
- relative viability (RERF-LC-KJ; first compound 0.03162 µM): 0.576
- relative viability (RERF-LC-KJ; first compound 0.1 µM): 0.496
- relative viability (RERF-LC-KJ; first compound 0.3162 µM): 0.429
- relative viability (RERF-LC-KJ; first compound 1 µM): 0.522
- relative viability (H3255; first compound 0.01 µM): 0.789
- relative viability (H3255; first compound 0.03162 µM): 0.484
- relative viability (H3255; first compound 0.1 µM): 0.709
- relative viability (H3255; first compound 0.3162 µM): 0.593
- relative viability (H3255; first compound 1 µM): 0.606
- relative viability (NCI-H1355; first compound 0.01 µM): 0.545
- relative viability (NCI-H1355; first compound 0.03162 µM): 0.59
- relative viability (NCI-H1355; first compound 0.1 µM): 0.552
- relative viability (NCI-H1355; first compound 0.3162 µM): 0.55
- relative viability (NCI-H1355; first compound 1 µM): 0.514
- relative viability (NCI-H2405; first compound 0.01 µM): 0.727
- relative viability (NCI-H2405; first compound 0.03162 µM): 0.753
- relative viability (NCI-H2405; first compound 0.1 µM): 0.821
- relative viability (NCI-H2405; first compound 0.3162 µM): 0.734
- relative viability (NCI-H2405; first compound 1 µM): 0.75
- relative viability (NCI-H2342; first compound 0.01 µM): 0.643
- relative viability (NCI-H2342; first compound 0.03162 µM): 0.504
- relative viability (NCI-H2342; first compound 0.1 µM): 0.535
- relative viability (NCI-H2342; first compound 0.3162 µM): 0.555
- relative viability (NCI-H2342; first compound 1 µM): 0.469
- relative viability (NCI-H2228; first compound 0.01 µM): 0.331
- relative viability (NCI-H2228; first compound 0.03162 µM): 0.267
- relative viability (NCI-H2228; first compound 0.1 µM): 0.217
- relative viability (NCI-H2228; first compound 0.3162 µM): 0.224
- relative viability (NCI-H2228; first compound 1 µM): 0.228
- relative viability (CAL-12T; first compound 0.01 µM): 0.354
- relative viability (CAL-12T; first compound 0.03162 µM): 0.248
- relative viability (CAL-12T; first compound 0.1 µM): 0.347
- relative viability (CAL-12T; first compound 0.3162 µM): 0.277
- relative viability (CAL-12T; first compound 1 µM): 0.288
- relative viability (NCI-H520; first compound 0.01 µM): 0.38
- relative viability (NCI-H520; first compound 0.03162 µM): 0.409
- relative viability (NCI-H520; first compound 0.1 µM): 0.418
- relative viability (NCI-H520; first compound 0.3162 µM): 0.438
- relative viability (NCI-H520; first compound 1 µM): 0.442
- relative viability (HCC-15; first compound 0.01 µM): 0.413
- relative viability (HCC-15; first compound 0.03162 µM): 0.379
- relative viability (HCC-15; first compound 0.1 µM): 0.433
- relative viability (HCC-15; first compound 0.3162 µM): 0.33
- relative viability (HCC-15; first compound 1 µM): 0.448
- relative viability (NCI-H1734; first compound 0.01 µM): 0.236
- relative viability (NCI-H1734; first compound 0.03162 µM): 0.264
- relative viability (NCI-H1734; first compound 0.1 µM): 0.307
- relative viability (NCI-H1734; first compound 0.3162 µM): 0.259
- relative viability (NCI-H1734; first compound 1 µM): 0.243
- relative viability (NCI-H1755; first compound 0.01 µM): 0.592
- relative viability (NCI-H1755; first compound 0.03162 µM): 0.669
- relative viability (NCI-H1755; first compound 0.1 µM): 0.693
- relative viability (NCI-H1755; first compound 0.3162 µM): 0.539
- relative viability (NCI-H1755; first compound 1 µM): 0.542
- relative viability (NCI-H322M; first compound 0.01 µM): 0.49
- relative viability (NCI-H322M; first compound 0.03162 µM): 0.464
- relative viability (NCI-H322M; first compound 0.1 µM): 0.485
- relative viability (NCI-H322M; first compound 0.3162 µM): 0.473
- relative viability (NCI-H322M; first compound 1 µM): 0.407
- relative viability (LCLC-97TM1; first compound 0.01 µM): 0.262
- relative viability (LCLC-97TM1; first compound 0.03162 µM): 0.246
- relative viability (LCLC-97TM1; first compound 0.1 µM): 0.28
- relative viability (LCLC-97TM1; first compound 0.3162 µM): 0.214
- relative viability (LCLC-97TM1; first compound 1 µM): 0.219
